Experimental data published in US10517854B2, “Dosing regiments of celgosivir for the treatment of dengue” (60 Degrees Pharmaceuticals, LLC, priority 2013, dated 2019).
Where two headings read alike, the source gives them in different places.

Experiments:
[1] = system: DENV2 in THP-1 human monocytes; assay: ADE infection of human monocytes (THP-1), plaque assay; assay type: cell-based; details: Dengue virus, THP-1, DENV2 + 4G2 antibody, 48 hours, read-out: EC50, suppression of viral replication under ADE condition
Method: The activity of celgosivir in infected human monocytes, one of the primary circulating cell types infected by dengue virus, was examined, THP-1 cells were grown in RPMI-1640 maintenance medium containing 10% fetal calf serum and 1% Penicillin-streptomycin and cultured in 37° C. incubator supplemented with 5% CO2. For ADE infection in THP-1 cells, virus (DENV2, MOI-10) was mixed with sub-neutralizing concentration of humanized 4G2 monoclonal antibody (0.05 μg/0.5 ml) and allowed to incubate on ice for 1 hr in the serum free medium, to allow immune complex formations. The immune complex was then added on to THP-1 (1×10^5) cells per well in a 24 well plate and further incubated for 2 hours at 37° C. incubator. An excess unbound immune complex was then removed by spinning cells at 1000 rpm for 5 min and then cells were supplemented with complete growth maintenance medium. For drug testing in the ADE condition, cells were mock (untreated) or celgosivir-treated for 48 hours, and finally media supernatant was collected for plaque assay analysis.

[2] = cited from earlier work; for AUCss / Cmin,ss / t1/2 / tmax: HIV-positive patients
DENV2 (TSV01 strain) = assay: Cell-based flaviviral immunodetection assay (CFI), DENV2; details: Dengue virus, DENV2, BHK-21, 48 h, DENV2, BHK21 cells
Method: BHK21 cells were seeded at 1.3×104 in 96-well plate and incubated overnight at 37° C. in 5% CO2 incubator. Confluent monolayer of BHK21 cells were infected with DENV2 (TSV01 strain) at an MOI (multiplicity of infection) 0.3 in the presence of various concentrations of test compounds and incubated for 1 hour at 37° C. in 5% CO2 incubator. Infected cells were incubated with test compounds for another 48 hours at 37° C. in 5A CO2. Cells were fixed with methanol and mouse monoclonal antibody 4G2 was used to detect DENV E protein, which was quantified using a secondary anti-mouse antibody conjugated with horseradish peroxidase (HRP). Absorbance was read at 450 nm and dose-response curve was plotted accordingly. The 50% effective concentration (EC50), that is, the concentration of the test compound that decreased the level of viral E protein production by 50%, was calculated by nonlinear regression analysis.

[3] = cited from earlier work
[4] = cited from earlier work
[5] = Population PK in dengue fever patients (NONMEM, predicted NCA parameters); assay type: in vivo, human; details: 400 mg loading dose then 200 mg every 12 hours for 9 doses
Method: Population pharmacokinetic (PK) analysis of castanospermine plasma concentration data after administration of celgosivir was performed using the non-linear mixed effects modelling software NONMEM (version 7.2.0). (16) Pharmacokinetic parameters were estimated using the first order conditional estimation method (FOCE) with eta-epsilon interaction. Due to limited data during the input phase, first-order absorption/formation of castanospermine was assumed. Between-subject variability was assumed to be log-nomally distributed. Model development was guided by objective function value (OFV), precision of the parameter estimates, inspection of standard goodness of lit plots and scientific plausability. The emperical Bayes estimates from the final model were used to predict individual concentrations for a standard saturated sampling design (i.e., samples collected at 0, 0.25, 0.5, 1, 1.5, 2, 4, 6 and 12 hours post-dose)) after the first dose (400 mg) and dose 9 (day 5; 200 mg). […] The NCA parameter values were derived using the statistical analysis software R (version 3.0.1). (17) NCA parameters after dose 9 were only determined for subject who received this dose. […]

[6] = celgosivir 10 mg/day for 14 days
[7] = celgosivir 20 mg/day for 14 days
[8] = celgosivir 40 mg/day for 14 days
[9] = celgosivir 80 mg/day for 14 days
[10] = celgosivir 160 mg/day for 14 days
[11] = celgosivir 240 mg/day for 14 days
[12] = celgosivir 360 mg/day for 14 days
[13] = celgosivir 450 mg/day for 14 days
[14] = radiolabeled castanospermine, PO or IV, within 24 hr

Compound: O[C@H]1[C@H](O)[C@@H](O)CN2CC[C@H](O)[C@H]12 [Castanospermine]
- EC50 [1]: 14 µM
- AUCss [2, 6]: 1000 ng·h/mL
- Cmin,ss [2, 6]: 8 ng/mL
- t1/2 [2, 6]: 13 h
- tmax [2, 6]: 0.7 h
- AUCss [2, 7]: 1750 ng·h/mL
- Cmin,ss [2, 7]: 11 ng/mL
- t1/2 [2, 7]: 27 h
- tmax [2, 7]: 1 h
- AUCss [2, 8]: 3610 ng·h/mL
- Cmin,ss [2, 8]: 23 ng/mL
- t1/2 [2, 8]: 30 h
- tmax [2, 8]: 1 h
- AUCss [2, 9]: 6530 ng·h/mL
- Cmin,ss [2, 9]: 29 ng/mL
- t1/2 [2, 9]: 16 h
- tmax [2, 9]: 0.3 h
- AUCss [2, 10]: 13300 ng·h/mL
- Cmin,ss [2, 10]: 70 ng/mL
- t1/2 [2, 10]: 21 h
- tmax [2, 10]: 0.8 h
- AUCss [2, 11]: 21500 ng·h/mL
- Cmin,ss [2, 11]: 110 ng/mL
- t1/2 [2, 11]: 16 h
- tmax [2, 11]: 0.6 h
- AUCss [2, 12]: 32100 ng·h/mL
- Cmin,ss [2, 12]: 179 ng/mL
- t1/2 [2, 12]: 15 h
- tmax [2, 12]: 0.7 h
- AUCss [2, 13]: 39800 ng·h/mL
- Cmin,ss [2, 13]: 191 ng/mL
- t1/2 [2, 13]: 14 h
- excretion and metabolites ([2]; humans): excreted unchanged in the urine, with no other metabolites detected
- EC50 (DENV2 (TSV01 strain)): ~21 µM
- gastrointestinal effects ([3]; 2 g/kg, sucrose- and starch containing diets): severe diarrhea and high intestinal bacterial counts
- GI toxicity ([3]; diet of proteins, vitamins and glucose without sucrose or complex carbohydrates): ameliorated
- mean Cmax in the portal vein ([4]; 400 mg/kg celgosivir PO): 105600 ng/mL
- AUC 0-60 min ([4]; portal vein, 400 mg/kg celgosivir PO): 63900 ng·h/mL
- route of excretion of radioactivity [4, 14]: majority of radioactivity was detected within urine
- urinary radioactivity identified as castanospermine [4, 14]: more than 92%
- variability in exposure between subjects [5]: small to moderate
